Data from BindingDB's records for doi:10.1021/jm00098a013 (Duquesne University, 1992).

Assay: Compound was evaluated for the inhibition of Aminoimidazole carboxamide ribonucleotide formyl transferase (AICAR) with (6R) tetrahydrofolate as substrate

For `Cc1c2cnc3nc(N)[nH]c(=O)c3c2c(C)n1C`, which IC50 is on record?
The IC50 was greater than 95 µM.
